Source: US20090018134A1, “Compounds - 945” (AstraZeneca AB, priority 2007, published 2009)

molecular target: T1, mTOR (Homo sapiens, UniProt P42345); assay: In Vitro mTOR Kinase Assay (Echo), Test (a)(ii); assay type: biochemical; conditions: not given
T1 construct: FLAG; made in house
Procedure, shortened: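 FLAG-tagged human mTOR truncation (residues 1362-2549) expressed in HEK293 cells and FLAG-purified. Compounds dispensed acoustically, reaction 2 h at room temperature, stopped with EDTA. Phosphorylation of biotinylated peptide detected by AlphaScreen with anti-p70 S6K (T389) antibody overnight; IC50 reported.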

T1 sequence (P42345 1362-2549): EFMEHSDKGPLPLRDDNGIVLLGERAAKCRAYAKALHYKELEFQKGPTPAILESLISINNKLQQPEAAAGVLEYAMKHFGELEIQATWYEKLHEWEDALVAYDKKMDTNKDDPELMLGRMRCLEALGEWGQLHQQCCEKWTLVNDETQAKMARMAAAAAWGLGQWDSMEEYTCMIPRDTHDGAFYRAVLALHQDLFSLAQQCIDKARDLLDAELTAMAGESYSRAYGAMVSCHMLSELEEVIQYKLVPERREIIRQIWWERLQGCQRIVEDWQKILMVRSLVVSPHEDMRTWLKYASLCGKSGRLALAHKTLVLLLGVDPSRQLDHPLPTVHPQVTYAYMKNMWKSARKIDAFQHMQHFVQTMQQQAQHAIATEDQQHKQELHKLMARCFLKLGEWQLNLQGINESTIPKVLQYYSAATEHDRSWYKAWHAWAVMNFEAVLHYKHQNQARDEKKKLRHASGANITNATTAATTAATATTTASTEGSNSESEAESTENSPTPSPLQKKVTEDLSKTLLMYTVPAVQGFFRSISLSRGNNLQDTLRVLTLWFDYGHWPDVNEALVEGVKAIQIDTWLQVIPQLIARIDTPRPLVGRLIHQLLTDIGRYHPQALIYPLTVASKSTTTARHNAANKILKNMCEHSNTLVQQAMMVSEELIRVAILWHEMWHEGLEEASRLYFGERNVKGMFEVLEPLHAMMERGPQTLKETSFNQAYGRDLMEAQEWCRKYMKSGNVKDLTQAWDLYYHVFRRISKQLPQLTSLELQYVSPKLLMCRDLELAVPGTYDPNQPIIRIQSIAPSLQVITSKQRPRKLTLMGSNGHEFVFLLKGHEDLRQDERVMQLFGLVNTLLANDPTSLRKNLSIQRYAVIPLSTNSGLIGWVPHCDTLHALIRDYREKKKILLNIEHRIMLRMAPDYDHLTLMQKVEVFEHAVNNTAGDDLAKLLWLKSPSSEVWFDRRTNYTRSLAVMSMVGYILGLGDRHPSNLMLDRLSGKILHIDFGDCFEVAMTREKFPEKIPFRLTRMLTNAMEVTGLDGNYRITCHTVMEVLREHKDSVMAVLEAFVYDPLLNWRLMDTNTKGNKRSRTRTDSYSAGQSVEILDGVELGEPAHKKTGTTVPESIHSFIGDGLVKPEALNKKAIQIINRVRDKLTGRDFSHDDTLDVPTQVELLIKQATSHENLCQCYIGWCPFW

Row | Structure (SMILES) | IC50 [nM]
1 | C[C@H]1COCCN1c1cc(C2(S(=O)(=O)c3ccccc3)CC2)nc(-c2ccc(NC(=O)NCCCl)cc2)n1 [Example 36ee, 1-[4-[4-[1-(benzenesulfonyl)cyclopropyl]-6-[(3S)-3-methylmorpholin-4-yl]pyrimidin-2-yl]phenyl]-3-(2-chloroethyl)urea] | 9.58

same assay, conditions: table of enzyme assay Test (a)(ii); read-out: Test (a)(ii) IC50

Row | Structure (SMILES) | IC50 [nM]
2 | Cc1csc(S(=O)(=O)C2(c3cc(N4CCOC[C@@H]4C)nc(-c4ccc(NC(=O)NCCO)cc4)n3)CCCC2)n1 [Example 36dl, 3-(2-hydroxyethyl)-1-[4-[4-[(3S)-3-methylmorpholin-4-yl]-6-[1-[(4-methyl-1,3-thiazol-2-yl)sulfonyl]cyclopentyl]pyrimidin-2-yl]phenyl]urea] | 3.99
3 | Cc1csc(S(=O)(=O)C2(c3cc(N4CCOC[C@@H]4C)nc(-c4ccc(NC(=O)NCCC#N)cc4)n3)CCCC2)n1 [Example 36dm, 3-(2-cyanoethyl)-1-[4-[4-[(3S)-3-methylmorpholin-4-yl]-6-[1-[(4-methyl-1,3-thiazol-2-yl)sulfonyl]cyclopentyl]pyrimidin-2-yl]phenyl]urea] | 29.8
4 | Cc1csc(S(=O)(=O)C2(c3cc(N4CCOC[C@@H]4C)nc(-c4ccc(NC(=O)NCCCO)cc4)n3)CCCC2)n1 [Example 36dn, 3-(3-hydroxypropyl)-1-[4-[4-[(3S)-3-methylmorpholin-4-yl]-6-[1-[(4-methyl-1,3-thiazol-2-yl)sulfonyl]cyclopentyl]pyrimidin-2-yl]phenyl]urea] | 13.8
5 | C[C@H]1COCCN1c1cc(C2(S(=O)(=O)c3ccccc3)CC2)nc(-c2ccc(NC(=O)N3CCC(O)C3)cc2)n1 (stereo partly drawn) [Example 36do, N-[4-[4-[1-(benzenesulfonyl)cyclopropyl]-6-[(3S)-3-methylmorpholin-4-yl]pyrimidin-2-yl]phenyl]-3-hydroxypyrrolidine-1-carboxamide] | 27.7
6 | C[C@H]1COCCN1c1cc(C2(S(=O)(=O)c3ccccc3)CC2)nc(-c2ccc(NC(=O)NCC(=O)O)cc2)n1 [Example 36dp, 2-[[4-[4-[1-(benzenesulfonyl)cyclopropyl]-6-[(3S)-3-methylmorpholin-4-yl]pyrimidin-2-yl]phenyl]carbamoylamino]aceticacid] | 10.6
7 | C[C@H]1COCCN1c1cc(C2(S(=O)(=O)c3ccccc3)CC2)nc(-c2ccc(NC(=O)NCC(=O)N(C)C)cc2)n1 [Example 36dq, 2-[[4-[4-[1-(benzenesulfonyl)cyclopropyl]-6-[(3S)-3-methylmorpholin-4-yl]pyrimidin-2-yl]phenyl]carbamoylamino]-N,N-dimethylacetamide] | 24.5
8 | C[C@H]1COCCN1c1cc(C2(S(=O)(=O)c3ccccc3)CC2)nc(-c2ccc(NC(=O)N(C)C3CC3)cc2)n1 [Example 36dr, 3-[4-[4-[1-(benzenesulfonyl)cyclopropyl]-6-[(3S)-3-methylmorpholin-4-yl]pyrimidin-2-yl]phenyl]-1-cyclopropyl-1-methylurea] | 294
9 | C[C@H]1COCCN1c1cc(C2(S(=O)(=O)c3ccccc3)CC2)nc(-c2ccc(NC(=O)NCCF)cc2)n1 [Example 36ds, 1-[4-[4-[1-(benzenesulfonyl)cyclopropyl]-6-[(3S)-3-methylmorpholin-4-yl]pyrimidin-2-yl]phenyl]-3-(2-fluoroethyl)urea] | 0.973
10 | C[C@H]1COCCN1c1cc(C2(S(=O)(=O)c3ccccc3)CCC2)nc(-c2ccc(NC(=O)NCCC#N)cc2)n1 [Example 36dt, 1-[4-[4-[1-(benzenesulfonyl)cyclobutyl]-6-[(3S)-3-methylmorpholin-4-yl]pyrimidin-2-yl]phenyl]-3-(2-cyanoethyl)urea] | 0.37
11 | C[C@H]1COCCN1c1cc(C2(S(=O)(=O)c3ccccc3)CCC2)nc(-c2ccc(NC(=O)NCc3ncc[nH]3)cc2)n1 [Example 36du, 1-[4-[4-[1-(benzenesulfonyl)cyclobutyl]-6-[(3S)-3-methylmorpholin-4-yl]pyrimidin-2-yl]phenyl]-3-(1H-imidazol-2-ylmethyl)urea] | 15.2
12 | C[C@H]1COCCN1c1cc(C2(S(=O)(=O)c3ccccc3)CC2)nc(-c2ccc(NC(=O)Nc3ccn(C)n3)cc2)n1 [Example 36dv, 1-[4-[4-[1-(benzenesulfonyl)cyclopropyl]-6-[(3S)-3-methylmorpholin-4-yl]pyrimidin-2-yl]phenyl]-3-(1-methypyrazol-3-yl)urea] | 4.3

The remaining lines, values ahead:

Row | IC50 [nM] | Structure (SMILES)
13 | 6.24 | Cc1cc(NC(=O)Nc2ccc(-c3nc(N4CCOC[C@@H]4C)cc(C4(S(=O)(=O)c5ccccc5)CC4)n3)cc2)no1 [Example 36dw, 3-[4-[4-[1-(benzenesulfonyl)cyclopropyl]-6-[(3S)-3-methylmorpholin-4-yl]pyrimidin-2-yl]phenyl]-1-(5-methyl-1,2-oxazol-3-yl)urea]
14 | 2.62 | C[C@H]1COCCN1c1cc(C2(S(=O)(=O)c3ccccc3)CC2)nc(-c2ccc(NC(=O)NCC(F)F)cc2)n1 [Example 36dx, 1-[4-[4-[1-(benzenesulfonyl)cyclopropyl]-6-[(3S)-3-methylmorpholin-4-yl]pyrimidin-2-yl]phenyl]-3-(2,2-difluoroethyl)urea]
15 | 6.36 | C[C@H]1COCCN1c1cc(C2(S(=O)(=O)c3ccccc3)CC2)nc(-c2ccc(NC(=O)Nc3ncco3)cc2)n1 [Example 36dy, 1-[4-[4-[1-(benzenesulfonyl)cyclopropyl]-6-[(3S)-3-methylmorpholin-4-yl]pyrimidin-2-yl]phenyl]-3-(1,3-oxazol-2-yl)urea]
16 | 2.77 | C[C@H]1COCCN1c1cc(C2(S(=O)(=O)c3ccccc3)CC2)nc(-c2ccc(NC(=O)Nc3ccon3)cc2)n1 [Example 36dz, 1-[4-[4-[1-(benzenesulfonyl)cyclopropyl]-6-[(3S)-3-methylmorpholin-4-yl]pyrimidin-2-yl]phenyl]-3-(1,2-oxazol-3-yl)urea]
17 | 6.67 | C[C@H]1COCCN1c1cc(C2(S(=O)(=O)C3CC3)CCC2)nc(-c2ccc(NC(=O)NC3CC3)cc2)n1 [Example 36e, 3-cyclopropyl-1-[4-[4-(1-cyclopropylsulfonylcyclobutyl)-6-[(3S)-3-methylmorpholin-4-yl]pyrimidin-2-yl]phenyl]urea]
18 | 8.84 | C[C@H]1COCCN1c1cc(C2(S(=O)(=O)c3ccccc3)CC2)nc(-c2ccc(NC(=O)NCC(F)(F)F)cc2)n1 [Example 36ea, 1-[4-[4-[1-(benzenesulfonyl)cyclopropyl]-6-[(3S)-3-methylmorpholin-4-yl]pyrimidin-2-yl]phenyl]-3-(2,2,2-trifluroethyl)urea]
19 | 3.11 | C[C@H]1COCCN1c1cc(C2(S(=O)(=O)c3ccccc3)CC2)nc(-c2ccc(NC(=O)Nc3cn(C)cn3)cc2)n1 [Example 36eb, 1-[4-[4-[1-(benzenesulfonyl)cyclopropyl]-6-[(3S)-3-methylmorpholin-4-yl]pyrimidin-2-yl]phenyl]-3-(1-methylimidazol-4-yl)urea]
20 | 3.21 | C[C@@H](CO)NC(=O)Nc1ccc(-c2nc(N3CCOC[C@@H]3C)cc(C3(S(=O)(=O)c4ccccc4)CC3)n2)cc1 [Example 36ec, 1-[4-[4-[1-(benzenesulfonyl)cyclopropyl]-6-[(3S)-3-methylmorpholin-4-yl]pyrimidin-2-yl]phenyl]-3-[(2S)-1-hydroxypropan-2-yl]urea]
21 | 7.04 | C[C@H](CO)NC(=O)Nc1ccc(-c2nc(N3CCOC[C@@H]3C)cc(C3(S(=O)(=O)c4ccccc4)CC3)n2)cc1 [Example 36ed, 1-[4-[4-[1-(benzenesulfonyl)cyclopropyl]-6-[(3S)-3-methylmorpholin-4-yl]pyrimidin-2-yl]phenyl]-3-[(2R)-1-hydroxypropan-2-yl]urea]
